Laboratory results as given in patent EP4289427A1, “DIHYDRO[1,8]NAPHTHYRIDIN-7-ONE AND PYRIDO[3,2-B][1,4]OXAZIN-3-ONE FOR USE IN TREATING CANCER, AND METASTASES IN PARTICULAR” (Anagenesis Biotechnologies, priority 2022, dated 2023).

Experiments:
RD cells = assay: Cytotoxicity assay (CellTiter-Glo 2.0) on RD cells; assay type: cell-based, Human; conditions: for IC50: Homo sapiens
Experimental: (§1) Cytotoxicity assays consist in treating cells with compounds and assessing remaining viability after a defined incubation time, depending on the cell line. CellTiter-Glo® 2.0 reagent allows viability measurement by quantification of ATP present, which is an indicator of metabolically active cells.
(§2) The cancer cell lines were cultivated in their respective growth medium (see tables 6a and 6b). On day 0 of the cytotoxicity assay, the cells were harvested and seeded into a 384-well plate at a defined density in their respective growth medium (see tables 6a and 6b). Compounds to be tested were then added onto the cells and incubated for a defined duration (see tables 6a and 6b). Following incubation, CellTiter-Glo® 2.0 reagent (cat.no. G9241 from Promega) was added into the wells (vol/vol, according to the manufacturer's recommendations), plates were gently shaken and incubated for 10 minutes in the dark at room temperature. Bioluminescence was then measured with a multimode plate reader (Victor Nivo from Perkin Elmer), and cell viability and relative IC50 were determined. Table 6a: Cancer cell characteristics, culture and cytotoxic assay conditions

4T1 cells = assay: Cytotoxicity assay (CellTiter-Glo 2.0) on 4T1 cells; assay type: cell-based, Mouse; conditions: incubation 2 days; for IC50: Mus musculus, 48 h
Experimental: as §1, §2

MDA-MB-231 cells = assay: Cytotoxicity assay (CellTiter-Glo 2.0) on MDA-MB-231 cells; assay type: cell-based, Human; conditions: incubation 3 days; for IC50: Homo sapiens, 72 h
Experimental: as §1, §2

EoL-1 cells = assay: Cytotoxicity assay (CellTiter-Glo 2.0) on EoL-1 cells; assay type: cell-based, Human; conditions: incubation 1 day; for IC50: Homo sapiens, EOL1, 24 h
Experimental: as §1, §2

HUVECs = assay: Tube formation assay (anti-angiogenic activity); assay type: cell-based, human; conditions: for IC50: Homo sapiens, HUVEC
Description: Angiogenesis is a phenomenon that includes different processes, such as endothelial cell proliferation, migration and differentiation that lead to the formation of new blood vessels. Tube formation assay is a standard in vitro test to assess angiogenesis: briefly, human Umbilical Vein Endothelial cells (hereafter "HUVECs") cultivated on a gelled basement matrix spontaneously proliferate, migrate and differentiate to form tube-like structures, that appear elongated and that connect to each other to form a network.
HUVECs were cultivated in Endothelial Cell Growth Medium (cat.no. C-22010 from Promocell) supplemented with 1% PenStrep (hereafter "HUVEC medium"). On day 0, HUVECs were harvested and transferred into a 384-well plate precoated with 10 µl/well of Cultrex UltiMatrix Reduced Growth factor basement membrane (cat.no. BME001-10 from BioTechne), according to the manufacturer's instructions, at a density of 5000 cells/well in HUVEC medium. Compounds to be tested were then added onto the cells and incubated for 16 to 18 hours at 37°C. After this incubation period, the cells were stained with calcein-AM (cat.no. 10462052 from Fisher Scientific) and pictures were acquired using a confocal fluorescent microscope (IXM from Molecular Devices). Tube formation was measured with MetaXpress® Software.

Compound	Cytotoxicity (RD cells; 2 day-treatment)	Cytotoxicity (RD cells; 4 day-treatment)	IC50 (RD cells; 48 h, 2 day-treatment)	IC50 (RD cells; 96 h, 4 day-treatment)	IC50 (4T1 cells)	Cytotoxicity (4T1 cells)	IC50 (MDA-MB-231 cells)	Cytotoxicity (MDA-MB-231 cells)	IC50 (EoL-1 cells)	Cytotoxicity (EoL-1 cells)	IC50 (HUVECs; incubation 16 to 18 hours)	Angiogenesis inhibition (HUVECs; incubation 16 to 18 hours)	further results
CSc1cc(Oc2ccnc3c2CCC(=O)N3)ccc1NC(=O)Nc1cc(C(C)(C)C)nn1-c1ccc(C)cc1 [Compound 002, 1-(3-(tert-butyl)-1-(p-tolyl)-1H-pyrazol-5-yl)-3-(2-(methylthio)-4-((7-oxo-5,6,7,8-tetrahydro-1,8-naphthyridin-4-yl)oxy)phenyl)urea]	++ (50% ≤ cytotoxicity < 85%)	++ (50% ≤ cytotoxicity < 85%)	1000 to 5000 nM	1000 to 5000 nM	1000 to 5000 nM	+++ (cytotoxicity ≥ 85%)	1000 to 5000 nM	++ (50% ≤ cytotoxicity < 85%)	10 to 100 nM	+++ (cytotoxicity ≥ 85%)	< 100 nM	+++ (angiogenesis inhibition ≥ 80%)	
CSc1cc(Oc2ccnc3c2CCC(=O)N3)ccc1NC(=O)Nc1cc(C(C)(C)C)no1 [Compound 008, 1-(3-(tert-butyl)isoxazol-5-yl)-3-(2-(methylthio)-4-((7-oxo-5,6,7,8-tetrahydro-1,8-naphthyridin-4-yl)oxy)phenyl)urea]	++ (50% ≤ cytotoxicity < 85%)	+++ (cytotoxicity ≥ 85%)	< 1000 nM	< 1000 nM	< 1000 nM	+++ (cytotoxicity ≥ 85%)	< 1000 nM	++ (50% ≤ cytotoxicity < 85%)	1 to 10 nM	+++ (cytotoxicity ≥ 85%)	< 100 nM	+++ (angiogenesis inhibition ≥ 80%)	
CSc1cc(Oc2ccnc3c2OCC(=O)N3)ccc1NC(=O)Nc1cc(C(C)(C)C)nn1-c1ccc(CN(C)C)cc1 [Compound 033, 1-[5-tert-butyl-2-[4-[(dimethylamino)methyl]phenyl]pyrazol-3-yl]-3-[2-methylsulfanyl-4-[(3-oxo-4H-pyrido[3,2-b][1,4]oxazin-8-yl)oxy]phenyl]urea]	+++ (cytotoxicity ≥ 85%)	+++ (cytotoxicity ≥ 85%)	1000 to 5000 nM	1000 to 5000 nM	< 1000 nM	+++ (cytotoxicity ≥ 85%)	1000 to 5000 nM	+++ (cytotoxicity ≥ 85%)	1 to 10 nM	+++ (cytotoxicity ≥ 85%)	< 100 nM	+++ (angiogenesis inhibition ≥ 80%)	
CC(C)(C)c1cc(NC(=O)Nc2ccc(Oc3ccnc4c3OCC(=O)N4)cc2C(F)(F)F)n(-c2cncc(F)c2)n1 [Compound 039, 1-[5-tert-butyl-2-(5-fluoro-3-pyridyl)pyrazol-3-yl]-3-[4-[(3-oxo-4H-pyrido[3,2-b][1,4]oxazin-8-yl)oxy]-2-(trifluoromethyl)phenyl]urea]	++ (50% ≤ cytotoxicity < 85%)	+ (20 % ≤ cytotoxicity < 50%)	1000 to 5000 nM	5000 to 10000 nM	< 1000 nM	+++ (cytotoxicity ≥ 85%)	1000 to 5000 nM	++ (50% ≤ cytotoxicity < 85%)	10 to 100 nM	++ (50% ≤ cytotoxicity < 85%)	< 100 nM	+++ (angiogenesis inhibition ≥ 80%)	
CSc1cc(Oc2ccnc3c2CCC(=O)N3)ccc1NC(=O)Nc1cc(C(C)(C)C)nn1-c1cccc(CN(C)C)c1 [Compound 050, 1-[5-tert-butyl-2-[3-(dimethylaminomethyl)phenyl]pyrazol-3-yl]-3-[2-methylsulfanyl-4-[(7-oxo-6,8-dihydro-5H-1,8-naphthyridin-4-yl)oxy]phenyl]urea]	+++ (cytotoxicity ≥ 85%)	+++ (cytotoxicity ≥ 85%)	1000 to 5000 nM	1000 to 5000 nM	< 1000 nM	+++ (cytotoxicity ≥ 85%)	1000 to 5000 nM	+++ (cytotoxicity ≥ 85%)	1 to 10 nM	+++ (cytotoxicity ≥ 85%)	< 100 nM	+++ (angiogenesis inhibition ≥ 80%)	
Cc1ccc(-n2nc(C(C)(C)C)cc2NC(=O)Nc2ccc(Oc3ccnc4c3CCC(=O)N4)cc2C(F)(F)F)cc1 [Compound 010, 1-[5-tert-butyl-2-(p-tolyl)pyrazol-3-yl]-3-[4-[(7-oxo-6,8-dihydro-5H-1,8-naphthyridin-4-yl)oxy]-2-(trifluoromethyl)phenyl]urea]	++ (50% ≤ cytotoxicity < 85%)	++ (50% ≤ cytotoxicity < 85%)	5000 to 10000 nM	5000 to 10000 nM	1000 to 5000 nM	+++ (cytotoxicity ≥ 85%)	1000 to 5000 nM	++ (50% ≤ cytotoxicity < 85%)	10 to 100 nM	++ (50% ≤ cytotoxicity < 85%)	100 to 500 nM	+++ (angiogenesis inhibition ≥ 80%)	
CNC(=O)c1cc(Oc2ccc(NC(=O)Nc3ccc(Cl)c(C(F)(F)F)c3)c(F)c2)ccn1 [Regorafenib, reference compound]													Cytotoxicity (RD cells; 2 day-treatment, commercial kinase inhibitors): + (20 % ≤ cytotoxicity < 50 %); Cytotoxicity (RD cells; 4 day-treatment, commercial kinase inhibitors): + (20 % ≤ cytotoxicity < 50 %); IC50 (RD cells; 48 h, 2 day-treatment, commercial kinase inhibitors): 5000 to 10000 nM; IC50 (RD cells; 96 h, 4 day-treatment, commercial kinase inhibitors): 1000 to 5000 nM; IC50 (4T1 cells; commercial kinase inhibitors): 5000 to 10000 nM; Cytotoxicity (4T1 cells; commercial kinase inhibitors): ++ (50 % ≤ cytotoxicity < 85 %); IC50 (MDA-MB-231 cells; commercial kinase inhibitors): 1000 to 5000 nM; Cytotoxicity (MDA-MB-231 cells; commercial kinase inhibitors): ++ (50 % ≤ cytotoxicity < 85 %); IC50 (EoL-1 cells; commercial kinase inhibitors): 1 to 10 nM; Cytotoxicity (EoL-1 cells; commercial kinase inhibitors): +++ (cytotoxicity ≥ 85%); IC50 (HUVECs; commercial kinase inhibitors): < 100 nM; Angiogenesis inhibition (HUVECs; commercial kinase inhibitors): ++ (80% > angiogenesis inhibition ≥ 50%)
CSc1cc(Oc2ccnc3c2CCC(=O)N3)ccc1NC(=O)Nc1cncc(C(F)(F)F)c1 [Compound 005, 1-(2-(methylthio)-4-((7-oxo-5,6,7,8-tetrahydro-1,8-naphthyridin-4-yl)oxy)phenyl)-3-(5-(trifluoromethyl)pyridin-3-yl)urea]	+ (20 % ≤ cytotoxicity < 50%)	++ (50% ≤ cytotoxicity < 85%)	1000 to 5000 nM	1000 to 5000 nM	5000 to 10000 nM	++ (50% ≤ cytotoxicity < 85%)	1000 to 5000 nM	++ (50% ≤ cytotoxicity < 85%)	< 1 nM	+++ (cytotoxicity ≥ 85%)	100 to 500 nM	++ (80% > angiogenesis inhibition ≥ 50%)	
CC(C)(C)c1cc(NC(=O)Nc2ccc(Oc3ccnc4c3OCC(=O)N4)cc2C(F)(F)F)n(-c2cccc(CN3CCOCC3)c2)n1 [Compound 044, 1-[5-tert-butyl-2-[3-(morpholinomethyl)phenyl]pyrazol-3-yl]-3-[4-[(3-oxo-4H-pyrido[3,2-b][1,4]oxazin-8-yl)oxy]-2-(trifluoromethyl)phenyl]urea]	+ (20 % ≤ cytotoxicity < 50%)	+ (20 % ≤ cytotoxicity < 50%)	≥ 10000 nM	≥ 10000 nM	1000 to 5000 nM	+++ (cytotoxicity ≥ 85%)	5000 to 10000 nM	+ (20 % ≤ cytotoxicity < 50%)	10 to 100 nM	++ (50% ≤ cytotoxicity < 85%)	100 to 500 nM	+++ (angiogenesis inhibition ≥ 80%)	
